Assay results taken from patent publication US4414216A, “Tetrahydrofuran compounds and analogs thereof” (Yoshitomi Phamaceutical Industries, Ltd., priority 1981, dated 1983).
Like-named read-outs stand apart in the source and are kept apart here.

Legend:
[1] = system: Motor activity (apomorphine hydrochloride); test: Antiapomorphine effect, Experiment 1: motor activity (Automex) after apomorphine; assay type: in vivo, male dd mice; conditions: 30 mg/kg intraperitoneal, 30 min before 0.5 mg/kg s.c. apomorphine hydrochloride, activity during 30 minutes, control 566
Experimental: (§1) Antiapomorphine effect was measured by the following methods.
Motor activity was measured with Automex (Columbus Instruments, U.S.A.) in two groups of 3 male dd mice. Thirty minutes after intraperitoneal administration of each test compound (30 mg/kg), 0.5 mg/kg of apomorphine hydrochloride was injected subcutaneously. Immediately after the apomorphine injection, the animals were placed in the transparent plastic cage (26×42×20 cm) and motor activity during 30 minutes was measured. Student's was calculated to indicate the level of significance of the change from control.

[2] = system: Motor activity (apomorphine hydrochloride); test: Antiapomorphine effect, Experiment 2: motor activity (Animex) after apomorphine, ED50; assay type: in vivo, male dd mice; conditions: Mus musculus, read-out: ED50 (dose which reduced the motor activity by 50% as compared with control)
Experimental: as §1
Motor activity was measured with Animex (Columbus Instruments, U.S.A.) in three groups of 5 male dd mice. Sixty minutes after oral administration of each test compound, 0.5 mg/kg of apomorphine hydrochloride was injected subcutaneously. The measurement of motor activity during 20 minutes started just after the apomorphine injection. ED50 was determined graphically as the dose which reduced the motor activity by 50% as compared with control.

| Structure (SMILES) | Motor Activity [1] | ED50 ([2]; po) | ED50 ([2]; Experiment 2, oral, 60 min before 0.5 mg/kg s.c. apomorphine hydrochloride, activity during 20 minutes) |
| --- | --- | --- | --- |
| O=c1[nH]c2cc(Cl)ccc2n1C1CCN(C[C@@H]2CO[C@H](c3ccc(F)cc3)C2)CC1 (relative stereo) [F] | 5 | 2.4 mg/kg |  |
| Fc1ccc(C2CC(CN3CCC(n4c(=S)[nH]c5ccccc54)CC3)CO2)cc1 (stereo not shown) [A] | 1 | 3.2 mg/kg |  |
| O=C1CCN(C2CCN(CC3COC(c4ccc(F)cc4)C3)CC2)C(=O)N1c1ccccc1 (stereo not shown) [D] | 28 |  | 25 mg/kg |
| O=c1[nH]c2cc(Cl)ccc2n1C1CCN(C[C@H]2CO[C@H](c3ccc(F)cc3)C2)CC1 (relative stereo) [G] | 8 | 0.9 mg/kg |  |
| O=c1[nH]c2cc(Cl)ccc2n1C1CCN(CC2CCC(c3ccc(F)cc3)O2)CC1 (stereo not shown) [H] | 5 | 12 mg/kg |  |
| O=c1[nH]c2ccccc2n1C1CCN(CC2COC(c3ccc(F)cc3)C2)CC1 (stereo not shown) [B] | 4 | 2.8 mg/kg |  |
| O=C1NCN(c2ccccc2)C12CCN(CC1COC(c3ccc(F)cc3)C1)CC2 (stereo not shown) [C] | 0 | 1.4 mg/kg |  |
| O=c1[nH]c2cc(Cl)ccc2n1C1CCN(CC2COC(c3ccc(F)cc3)C2)CC1 (stereo not shown) [E] | 23 | 0.4 mg/kg |  |
